In patent US20250154193A1, “STEROID COMPOUND, AND PREPARATION METHOD THEREFOR AND APPLICATION THEREOF” (CHOLESGEN (SHANGHAI) CO., LTD., priority 2022, published 2025) one finds half-life and IC50 data, which are given here for 21 compounds.

Where only a bound is given, the exact number is not on record here.

A word on the IC50: it is the concentration that inhibits the measured activity by half.

A short description of data set [1]: Liver microsomal metabolic stability assay. Conditions: rat liver microsomes, NADPH, 37° C., 0-60 minutes; read-out: Rat microsomal metabolic half-life (t1/2). The data set is classed as in vitro ADME. As to the method:
PBS solution (100 mM), MgCl2 solution (100 mM), and NADPH solution (20 mM) were prepared respectively. Compound and testosterone (positive control) stock solutions were then prepared with dimethyl sulfoxide (DMSO), diluted to 100 µM with methanol for sample incubation, and stored at −10 to −30° C. 12.5 μL of rat liver microsomes (purchased from XenoTech, Cat. No.: R1000, Lot No.: 1310030, specification: 20 mg/mL), 432.5 µL of PBS solution (100 mM), 25 µL of NADPH solution (20 mM), and 25 μL of MgCl2 solution (100 mM) were added to a 96-well plate, mixed well, and pre-incubated at 37° C. for 5 minutes. 5 µL of substrate (test compound) solution was added to start the reaction. At specified time points of 0, 5, 15, 30, 45, and 60 minutes (0 and 60 minutes for the negative control group), 50 µL of the incubated samples were added to a stop plate containing 100 µL of ice-cold stop solution, vortexed for 1 minute to inactivate the reaction, and stored at −60 to −90° C. for subsequent analysis. Sample analysis of the test compound and the control compound testosterone was performed using LC-MS/MS method. Chromatographic peaks were integrated, calculated, and processed using Analyst software. Semi-quantitative analysis was performed for both the test compound and the control compound testosterone by calculating peak area ratios.
On the technique in general: Liver microsomes are vesicles of endoplasmic reticulum, rich in cytochrome P450 enzymes.

Data set [2] relates to SREBP pathway. The experiment in a line: SREBP luciferase reporter gene system (SRE-luciferase assay) in Huh-7/SRE-Luc cells. The data set is classed as cell-based. The conditions noted are these: Homo sapiens, sterol-deficient medium, compound treatment 16 hours, luciferase/GFP ratio. The method, then: Huh-7/SRE-Luc, a human hepatocellular carcinoma cell line, was grown in a culture medium containing DMEM, 10% fetal bovine serum, 100 units/mL penicillin, 100 µg/mL streptomycin, and 200 μg/mL G418.
The Huh-7/SRE-Luc cell line is a human hepatocellular carcinoma cell line Huh-7 stably expressing LDLR promoter-luciferase and green fluorescent protein (GFP). The LDLR promoter region contains a sterol regulatory element (SRE) that can effectively and sensitively respond to the regulation of the transcription factor SREBP. The GFP signal serves as an internal reference to indicate changes in cell number. Therefore, this cell line can be used to screen for active small molecules that regulate the SREBP signaling pathway. […] Cells were incubated in a sterol-deficient medium (5% lipoprotein-deficient serum, 2 μM Lovastatin, 10 μM mevalonate) and treated with corresponding concentrations of compounds for 16 hours. After compound treatment, the cells were lysed with lysis buffer (E397A, Promega), followed by the addition of luciferase substrate (E1500, Promega). The SRE-driven luciferase activity was measured using a BioTek Synergy HTX microplate reader (including but not limited to this type of instrument). The fluorescence intensity of enhanced green fluorescent protein (EGFP) was also measured using the BioTek microplate reader (including but not limited to this type of instrument) and used as an internal reference. The ratio of SRE-driven luciferase activity to GFP fluorescence intensity was used as an indicator of SREBP pathway activity. The test data of each test compound was analyzed using Prism software to obtain the IC50 parameter of the compound.
The inhibitory effect of the compounds of the present disclosure on the SREBP pathway was tested by the method of bioassay example 2. The concentration gradient of each compound was designed as 0.01, 0.03, 0.1, 0.3, 1.0, 3.0, and […], with DMSO as a vehicle control.
On the technique in general: A reporter such as luciferase makes a cellular process visible.

Take `C[C@H](CCCC(C)(C)O)[C@H]1CC[C@H]2[C@H]3[C@H](CC[C@]12C)[C@@]1(C)CC[C@H](O)[C@H](O)[C@@H]1CC3(F)F` [compound 274, (1R,3aS,3bS,5aR,6R,7S,9aR,9bS,11aR)-4,4-difluoro-1-[(2R)-6-hydroxy-6-methylheptan-2-yl]-9a,11a-dimethylhexadecahydro-1H-cyclopenta[1,2-a]phenanthrene-6,7-diol]: in data set [1], the half-life at 1 µM was more than 3.1 h. Also, the IC50 in data set [2] turned out to be 0.313 µM.

Regarding `C[C@H](CCCC(C)(C)O)[C@H]1CC[C@H]2[C@@H]3CC[C@H]4C[C@@H](O)CC[C@]4(C)[C@H]3CC[C@]12C` [compound 185, cholest-3β,25-diol], in data set [1], the half-life at 1 µM amounted to 3.17 h. The IC50 in data set [2] is 0.233 µM.

Consider `C[C@H](CCCC(O)c1cccc(F)c1)[C@H]1CC[C@H]2[C@@H]3CC[C@H]4[C@@H](O)[C@@H](O)CC[C@]4(C)[C@H]3CC[C@]12C` (stereo partly drawn) [compound 281, 24-[(3-fluorophenyl)(hydroxy)methyl]-5α-cholan-3β,4β-diol], for which the half-life at 1 µM in data set [1] was found to be 1.17 h. Moreover, the half-maximal inhibitory concentration (IC50) in data set [2] worked out at 0.111 µM.

As to `C[C@H](CCCC(C)(C)O)[C@H]1CC[C@H]2[C@@H]3C(=O)C[C@H]4C[C@@H](O)CC[C@]4(C)[C@H]3CC[C@]12C` [compound 216, 3P,25-dihydroxy-5α-cholest-7-one], the half-life at 1 µM in data set [1] was 0.385 h. Moreover, in data set [2], the IC50 came to 0.379 µM.

In the case of `COc1cc(F)ccc1C(O)CCC[C@@H](C)[C@H]1CC[C@H]2[C@@H]3CC[C@H]4[C@@H](O)[C@@H](O)CC[C@]4(C)[C@H]3CC[C@]12C` (stereo partly drawn) [compound 306, 24-[(4-fluoro-2-methoxyphenyl)(hydroxy)methyl]-5α-cholan-3β,4β-diol], the half-life at 1 µM in data set [1] was 1.74 h. For the same compound, in data set [2], the IC50 turned out to be 0.08 µM.

With `C[C@H](CCCC(O)c1c(F)cccc1F)[C@H]1CC[C@H]2[C@H]3[C@H](CC[C@]12C)[C@@]1(C)CC[C@H](O)[C@H](O)[C@@H]1CC3(F)F` (stereo partly drawn) [compound 300, (1R,3aS,3bS,5aR,6R,7S,9aR,9bS,11aR)-1-[(2R)-6-(2,6-difluorophenyl)-6-hydroxyhexan-2-yl]-4,4-difluoro-9a,11a-dimethylhexadecahydro-1H-cyclopenta[1,2-α]phenanthrene-6,7-diol], in data set [1], the half-life at 1 µM turned out to be 0.402 h. Moreover, the IC50 in data set [2] amounted to 0.036 µM.

Regarding `C[C@H](CCC[C@@H](O)c1ccccc1F)[C@H]1CC[C@H]2[C@@H]3CC[C@H]4[C@@H](O)[C@@H](O)CC[C@]4(C)[C@H]3CC[C@]12C` (single isomer, unassigned) [compound 279, 24-[R-(2-fluorophenyl)(hydroxy)methyl]-5α-cholan-30,40-diol or 24-[S-(2-fluorophenyl)(hydroxy)methyl]-5α-cholan-30,40-diol], in data set [1], the half-life at 1 µM amounted to 0.922 h. Also, the IC50 in data set [2] was found to be 0.196 µM.

As to `C[C@H](CCCC(O)c1c(F)cc(F)cc1F)[C@H]1CC[C@H]2[C@@H]3CC[C@H]4[C@@H](O)[C@@H](O)CC[C@]4(C)[C@H]3CC[C@]12C` (stereo partly drawn) [compound 275, 24-[(2,4,6-difluorophenyl)(hydroxy)methyl]-5α-cholan-3β,4β-diol], the half-life at 1 µM in data set [1] worked out at 1.52 h. Besides, in data set [2], the IC50 was 0.141 µM.

On to `COc1ccccc1C(O)CCC[C@@H](C)[C@H]1CC[C@H]2[C@@H]3CC[C@H]4[C@@H](O)[C@@H](O)CC[C@]4(C)[C@H]3CC[C@]12C` (stereo partly drawn) [compound 287, 24-[Hydroxy(2-methoxyphenyl)methyl]-5α-cholan-30,40-diol], for which, in data set [1], the half-life at 1 µM amounted to 1.27 h. For the same compound, in data set [2], the IC50 was determined as 0.159 µM.

In the case of `C[C@H](CCCC(C)(C)O)[C@H]1CC[C@H]2[C@@H]3CC[C@H]4C(=O)[C@@H](O)CC[C@]4(C)[C@H]3CC[C@]12C` [compound 238, 3β,25-Dihydroxy-5α-cholest-4-one], the half-life at 1 µM in data set [1] is 1.26 h. Besides, in data set [2], the 50% inhibitory concentration (IC50) was determined as 0.049 µM.

On to `C[C@H](CCCC(C)(C)O)[C@H]1CC[C@H]2[C@H]3[C@H](CC[C@]12C)[C@@]1(C)CC[C@H](O)C(=O)[C@@H]1CC3(F)F` [compound 302, (1R,3aS,3bS,5aR,7S,9aR,9bS,11aR)-4,4-difluoro-7-hydroxy-1-[(2R)-6-hydroxy-6-methylheptan-2-yl]-9a,11a-dimethylhexadecahydro-1H-cyclopenta[1,2-α]phenanthren-6-one], for which the half-life at 1 µM in data set [1] was 0.979 h. Moreover, the IC50 in data set [2] worked out at 0.035 µM.

Take `C[C@H](CCCC(C)(C)O)[C@H]1CC[C@H]2[C@@H]3C[C@@H](N)[C@H]4[C@@H](O)[C@@H](O)CC[C@]4(C)[C@H]3CC[C@]12C` [compound 295, 6-amino-5α-cholest-3β,4p,25-triol]: the IC50 in data set [2] was more than 10 µM.

For `C[C@H](CCCC1(O)CC1)[C@H]1CC[C@H]2[C@@H]3CC[C@H]4[C@@H](O)[C@@H](O)CC[C@]4(C)[C@H]3CC[C@]12C` [compound 245, (1R,3aS,5aR,6R,7S,9aR,11aR)-1-[(2R)-5-(hydroxycyclopropyl)pentan-2-yl]-9a,11a-dimethylhexadecahydro-1H-cyclopenta[1,2-a]phenanthrene-6,7-diol], the IC50 in data set [2] turned out to be 0.192 µM.

In the case of `C[C@H](CCCC(O)c1c(F)cccc1F)[C@H]1CC[C@H]2[C@@H]3C(=O)C[C@H]4[C@@H](O)[C@@H](O)CC[C@]4(C)[C@H]3CC[C@]12C` (stereo partly drawn) [compound 289, 24-[(2,6-difluorophenyl)(hydroxy)methyl]-4β-hydroxy-3β-hydroxy-5α-cholan-7-one], the IC50 in data set [2] stood at 0.117 µM.

For `C[C@H](CCCC(C)(C)O)[C@H]1CC[C@H]2[C@@H]3C(=O)C[C@H]4[C@@H](O)[C@@H](O)CC[C@]4(C)[C@H]3CC[C@]12C` [compound 242, 25-hydroxy-4β-hydroxy-3β-hydroxy-5α-cholest-7-one], the IC50 in data set [2] is 0.556 µM.

Regarding `C[C@H](CCCC(O)C1CC1)[C@H]1CC[C@H]2[C@@H]3CC[C@H]4[C@@H](O)[C@@H](O)CC[C@]4(C)[C@H]3CC[C@]12C` (stereo partly drawn) [compound 233, 24-[cyclopropyl(hydroxy)methyl]-5α-cholan-3β,4β-diol], the IC50 in data set [2] is 0.232 µM.

Consider `C[C@H](CCCC(C)(C)O)[C@H]1CC[C@H]2[C@@H]3CC[C@H]4C(=NO)[C@@H](O)CC[C@]4(C)[C@H]3CC[C@]12C` (stereo in doubt) [compound 273, [(1R,3aS,3bS,5aR,6E,7S,9aR,9bS,11aR)-7-hydroxy-1-[(2R)-6-hydroxy-6-methylheptan-2-yl]-9a,11a-dimethylhexadecahydro-1H-cyclopenta[1,2-a]phenanthren-6-ylidene]hydroxylamine], for which the IC50 in data set [2] was determined as 0.279 µM.

As for `C[C@H](CCN1CCc2ccccc2C1=O)[C@H]1CC[C@H]2[C@@H]3CC[C@H]4C[C@@H](O)CC[C@]4(C)[C@H]3CC[C@]12C` [compound 224], the IC50 in data set [2] was more than 10 µM.

With `C[C@H](CCCC(C)(C)O)[C@H]1CC[C@H]2[C@@H]3CC(=O)[C@H]4[C@@H](O)[C@@H](O)CC[C@]4(C)[C@H]3CC[C@]12C` [compound 235, 25-hydroxy-4β-hydroxy-3β-hydroxy-5α-cholest-6-one], the IC50 in data set [2] is 10.8 µM.

On to `C[C@H](CCCC(O)c1c(F)cccc1F)[C@H]1CC[C@H]2[C@H]3[C@H](CC[C@]12C)[C@@]1(C)CC[C@H](O)C(=O)[C@@H]1CC3(F)F` (stereo partly drawn) [compound 301, (1R,3aS,3bS,5aR,7S,9aR,9bS,11aR)-1-[(2R)-6-(2,6-difluorophenyl)-6-hydroxyhexan-2-yl]-4,4-difluoro-7-hydroxy-9a,11a-dimethylhexadecahydro-1H-cyclopenta[1,2-α]phenanthren-6-one], for which the 50% inhibitory concentration (IC50) in data set [2] was 0.04 µM.

Consider `C[C@H](CCCC(C)(C)O)[C@H]1CC[C@H]2[C@@H]3CC(C#N)C4(O)C[C@@H](O)CC[C@]4(C)[C@H]3CC[C@]12C` (some centres unmarked) [compound 227], for which the IC50 in data set [2] was 1.33 µM.
